Measured values taken from ChEMBL document CHEMBL3727357, “Compositions and methods for inhibiting g protein signaling” (2010).
Active and inactive are the calls of the source. The rule behind the calls is not given here.

What was measured:
[1] = molecular target: T1, Guanine nucleotide-binding protein G(I)/G(S)/G(T) subunit beta-1/gamma-2 (Homo sapiens, UniProt P62873+P59768); experiment: Inhibition of biotinylated Gbeta1gamma2 (unknown origin)-mediated PLCbeta2 activation incubated for 16 hrs; type: protein-complex assay
Target sequence in this assay (P59768 2-71 limits assumed): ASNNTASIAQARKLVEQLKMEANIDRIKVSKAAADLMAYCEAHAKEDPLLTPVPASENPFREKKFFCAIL
Target sequence in this assay (P62873 2-340 limits assumed): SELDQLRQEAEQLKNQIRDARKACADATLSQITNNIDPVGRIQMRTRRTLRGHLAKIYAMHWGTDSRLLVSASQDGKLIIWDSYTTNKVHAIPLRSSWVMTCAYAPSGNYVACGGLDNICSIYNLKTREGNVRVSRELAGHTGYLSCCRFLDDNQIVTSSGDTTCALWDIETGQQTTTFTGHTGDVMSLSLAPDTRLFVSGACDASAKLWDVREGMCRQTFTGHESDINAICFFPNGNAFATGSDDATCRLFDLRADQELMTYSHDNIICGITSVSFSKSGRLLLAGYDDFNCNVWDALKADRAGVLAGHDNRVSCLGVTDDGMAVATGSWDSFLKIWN

[2] = molecular target: T1, Guanine nucleotide-binding protein G(I)/G(S)/G(T) subunit beta-1/gamma-2; experiment: Inhibition of biotinylated Gbeta1gamma2 (unknown origin)-mediated PLCbeta3 activation incubated for 16 hrs; type: protein-complex assay
Target sequence in this assay (P59768 2-71 limits assumed): as the sequence (P59768 2-71 limits assumed) above
Target sequence in this assay (P62873 2-340 limits assumed): as the sequence (P62873 2-340 limits assumed) above

[3] = system: HL-60; experiment: Binding affinity to Gbetagamma in human HL60 cells assessed as inhibition of fMLP-stimulated Ca2+ release at 10 uM incubated for 5 mins prior to fMLP stimulation by Fura2-AM dye-based assay; type: cell-based
[4] = system: HL-60; experiment: Effect on fMLP-stimulated ERK1/2 phosphorylation in human HL60 cells at 10 uM incubated for 5 mins prior to fMLP stimulation by Western blot analysis; type: functional, cell-based
[5] = system: HL-60; experiment: Binding affinity to Gbetagamma in human HL60 cells assessed as inhibition of fMLP-stimulated GFP-PHAkt translocation to plasma membrane at 10 uM incubated for 5 mins prior to fMLP stimulation by Western blot analysis; type: cell-based
[6] = molecular target: T1, Guanine nucleotide-binding protein G(I)/G(S)/G(T) subunit beta-1/gamma-2; experiment: Inhibition of SIGKAFKILGYPDYD binding to biotinylated Gbeta1gamma2 (unknown origin) incubated for 1 hr by phage ELISA; type: protein-complex assay
Target sequence in this assay (P59768 2-71 partner limits assumed): as the sequence (P59768 2-71 limits assumed) above
Target sequence in this assay (P62873 2-340 limits assumed): as the sequence (P62873 2-340 limits assumed) above

[7] = molecular target: T1, Guanine nucleotide-binding protein G(I)/G(S)/G(T) subunit beta-1/gamma-2; experiment: Inhibition of SIGKAFKILGYPDYD binding to biotinylated Gbeta1gamma2 (unknown origin) at 300 uM incubated for 1 hr by phage ELISA; type: protein-complex assay
Target sequence in this assay (P59768 2-71 partner limits assumed): as the sequence (P59768 2-71 limits assumed) above
Target sequence in this assay (P62873 2-340 limits assumed): as the sequence (P62873 2-340 limits assumed) above

With Ic1ccc2c(c1)N(c1ccccc1)c1cc(Nc3ccc4nc5ccc(I)cc5[n+](-c5ccccc5)c4c3)ccc1N2 the IC50 [1] was “Not Active” and the IC50 [2] was “Not Active”.
In the case of O=C(O)C1CC23C(Cl)C(Cl)C(Cl)C(Cl)C2(CC1c1c2ccc(=O)c(O)c-2oc2c(O)c(O)ccc12)C3(Cl)Cl (centres undefined), the inhibition [3] is reported as “Active”, the Activity [4] is reported as “inactive” and the inhibition [5] is reported as “Active”.
Cc1c2ccc(=O)cc-2oc2cc(O)ccc12 was tested, and the inhibition [6] was “inactive” and the inhibition [7] was “inactive”.
Cc1c2cc(O)c(=O)cc-2oc2cc(O)c(O)cc12 was tested, and the inhibition [6] was “inactive” and the inhibition [7] was “inactive”.
